From US20260199485A1, “RNA DEGRADERS AND USES THEREOF” (Arrakis Therapeutics, Inc., priority 2022, published 2026)

Each molecule was assayed against T1, CNOT7 (Homo sapiens, UniProt Q9UIV1) (assay: Binding of compounds to CNOT7 by surface plasmon resonance (SPR)). Conditions: Table 6; dissociation constant for CNOT7 by SPR.
T1 construct: biotin (biotinylated); purchased Ichor Life Sciences
Experimental: Surface plasmon resonance (SPR) was used to evaluate the binding of compounds to CNOT7. Experiments were performed on a Biacore 8K (Cytiva) with a running buffer consisting of 20 mM HEPES pH7.5, 100 mM KCl, 3 mM MgCl2, 1 mM TCEP, 0.05% tween-20, 2% DMSO. Briefly, biotinylated CNOT7 (Ichor Life Sciences) at a concentration of 70 μg/ml was immobilized to a streptavidin coated chip (Cytiva sensor chip SA) for 1200 sec at a flow rate of 5 μl/min (typical immobilization level 7,500 RU). For compound binding experiments, various concentrations of analyte were flowed over the chip with 120 sec association phase, 120 sec dissociation phase, at a flow rate of 30 ul/min and collection rate of 10 Hz. Reference channel subtraction and solvent correction were applied to all sensograms prior to data analysis. Sensograms were fit to 1:1 steady state affinity model. FIGS. 3 and 4 show the binding of exemplary compounds and the AMP control (a known CNOT7 active site binder) at various concentrations to CNOT7.

T1 sequence (Q9UIV1 whole entry): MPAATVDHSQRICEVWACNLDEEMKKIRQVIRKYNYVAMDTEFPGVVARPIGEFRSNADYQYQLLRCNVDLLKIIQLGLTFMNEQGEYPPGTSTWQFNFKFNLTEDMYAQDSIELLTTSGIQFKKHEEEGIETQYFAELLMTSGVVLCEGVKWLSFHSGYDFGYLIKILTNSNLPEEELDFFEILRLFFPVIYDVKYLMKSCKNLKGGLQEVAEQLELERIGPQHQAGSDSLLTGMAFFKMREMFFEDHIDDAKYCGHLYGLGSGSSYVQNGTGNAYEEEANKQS

Row | Kd [µM] | SMILES
1 | 1 to 25 | COC[C@H](Sc1nc(=O)[nH]cc1C)C(=O)N[C@@H](C)c1ccc2c(c1)CC(=O)N2 [Compound I-325]
2 | 1 to 25 | C#CCOCCOCCOCC(Sc1nc(=O)[nH]cc1C)C(=O)NC(C)c1ccc(OC)cc1F (stereo not drawn) [Compound I-326]
3 | 1 to 25 | COc1ccc([C@@H](NC(=O)CSc2nc(=O)[nH]cc2C)C(C)C)cc1 [Compound I-327]
4 | 1 to 25 | Cc1c[nH]c(=O)nc1SCC(=O)N[C@@H](C)c1ccc2c(c1)CC(=O)N2 [Compound I-328]

Same assay, conditions: dissociation constant by SPR, Table 7

Row | Kd [µM] | SMILES
5 | 1 to 25 | COC[C@H](Sc1nc(=O)[nH]cc1C)C(=O)N[C@@H](C)c1ccc2c(c1)CC(=O)N2 [Compound I-325]
6 | 1 to 25 | C#CCOCCOCCOCC(Sc1nc(=O)[nH]cc1C)C(=O)NC(C)c1ccc(OC)cc1F (stereo not drawn) [Compound I-326]
7 | 1 to 25 | COc1ccc([C@@H](NC(=O)CSc2nc(=O)[nH]cc2C)C(C)C)cc1 [Compound I-327]
8 | 1 to 25 | COCC(Sc1nc(=O)[nH]cc1C)C(=O)NC(C)c1ccc2c(c1)CC(=O)N2 (stereo not drawn) [Compound I-331]
9 | 1 to 25 | COC[C@@H](Sc1nc(=O)[nH]cc1C)C(=O)N[C@@H](C)c1ccc2c(c1)CC(=O)N2 [Compound I-332]
10 | > 25 | COc1ccc(C(CN(C)C)NC(=O)CSc2nc(=O)[nH]cc2C)cc1 (stereo not drawn) [Compound I-340]
11 | 1 to 25 | COc1ccc([C@@H](C)NC(=O)[C@@H](CCOCCOCCOCCN=[N+]=[N-])Sc2nc(=O)[nH]cc2C)c(F)c1 [Compound I-378]
12 | > 25 | COc1ccc(CNC(=O)[C@H](CCOCCOCCOCCN=[N+]=[N-])Sc2nc(=O)[nH]cc2Cl)cc1 [Compound I-400]
13 | 1 to 25 | COc1ccc(CNC(=O)[C@H](COCCOCCOCCN=[N+]=[N-])Sc2nc(=O)[nH]cc2C)cc1 [Compound I-404]
14 | 1 to 25 | COc1ccc(CNC(=O)[C@@H](COCCOCCOCCN=[N+]=[N-])Sc2nc(=O)[nH]cc2C)c(F)c1 [Compound I-405]
15 | 1 to 25 | COC[C@H](Sc1nc(=O)[nH]cc1C)C(=O)NCc1ccc2c(c1)CC(=O)N2C [Compound I-412]
16 | 1 to 25 | COCCOCCC(Sc1nc(=O)[nH]cc1C)C(=O)NCc1ccc(OC)cc1 (stereo not drawn) [Compound I-443]
17 | 1 to 25 | COCCOCC[C@@H](Sc1nc(=O)[nH]cc1C)C(=O)NCc1ccc(OC)cc1 [Compound I-444]
18 | 1 to 25 | COc1ccc(CNC(=O)[C@H](CCc2ccc(O)cc2)Sc2nc(=O)[nH]cc2C)cc1 [Compound I-489]
19 | 1 to 25 | COCCNC(=O)CCC(Sc1nc(=O)[nH]cc1C)C(=O)NCc1ccc(OC)cc1 (stereo not drawn) [Compound I-490]
20 | > 25 | COc1ccc(CNC(=O)C(CCC(=O)N2CCN(C)CC2)Sc2nc(=O)[nH]cc2C)cc1 (stereo not drawn) [Compound I-491]
21 | > 25 | CC#CCNC(=O)CCC(Sc1nc(=O)[nH]cc1C)C(=O)NCc1ccc(OC)cc1 (stereo not drawn) [Compound I-492]
22 | 1 to 25 | COCCN1CCN(CCC(Sc2nc(=O)[nH]cc2C)C(=O)NCc2ccc(OC)cc2)CC1 (stereo not drawn) [Compound I-499]
23 | 1 to 25 | COCCOCC#CCC(Sc1nc(=O)[nH]cc1C)C(=O)NCc1ccc(OC)cc1 (stereo not drawn) [Compound I-500]
24 | 1 to 25 | COCCOCC#CC[C@H](Sc1nc(=O)[nH]cc1C)C(=O)NCc1ccc(OC)cc1 [Compound I-502]

More lines, now with the values behind:

Row | SMILES | Kd [µM]
25 | Cc1c[nH]c(=O)nc1SCC(=O)N[C@@H](C)c1ccc2c(c1)CC(=O)N2 [Compound I-328] | 1 to 25
26 | COC[C@@H](Sc1nc(=O)[nH]cc1Cl)C(=O)N[C@H](C)c1ccc2c(c1)CC(=O)N2 [Compound I-333] | 1 to 25
27 | COC[C@H](Sc1nc(=O)[nH]cc1Cl)C(=O)N[C@H](C)c1ccc2c(c1)CC(=O)N2 [Compound I-334] | 1 to 25
28 | C#CCOCCOCCOCC(Sc1nc(=O)[nH]cc1Cl)C(=O)NC(C)c1ccc(OC)cc1F (stereo not drawn) [Compound I-342] | 1 to 25
29 | COc1ccc([C@@H](C)NC(=O)[C@@H](CCOCCOCCOCCN=[N+]=[N-])Sc2nc(=O)[nH]cc2Cl)c(F)c1 [Compound I-349] | 1 to 25
30 | COc1ccc([C@@H](C)NC(=O)[C@@H](COCCOCCOCCN=[N+]=[N-])Sc2nc(=O)[nH]cc2C)c(F)c1 [Compound I-367] | 1 to 25
31 | COc1ccc([C@@H](C)NC(=O)[C@H](COCCOCCOCCN=[N+]=[N-])Sc2nc(=O)[nH]cc2C)c(F)c1 [Compound I-368] | 1 to 25
32 | COc1ccc(C(C)NC(=O)C(CCOCCOCCOCCn2cc(CCc3ccc(NC(=O)Nc4nc(CC(=O)N5CCN(C)CC5)cs4)cc3)nn2)Sc2nc(=O)[nH]cc2Cl)c(F)c1 (stereo not drawn) [Compound I-384] | > 25
33 | COc1ccc([C@@H](C)NC(=O)[C@@H](COCCOCCOCCN=[N+]=[N-])Sc2nc(=O)[nH]cc2Cl)c(F)c1 [Compound I-392] | 1 to 25
34 | COc1ccc(CNC(=O)[C@@H](CCOCCOCCOCCN=[N+]=[N-])Sc2nc(=O)[nH]cc2Cl)c(F)c1 [Compound I-401] | > 25
35 | COc1ccc(CNC(=O)[C@H](CCOCCOCCOCCN=[N+]=[N-])Sc2nc(=O)[nH]cc2Cl)c(F)c1 [Compound I-402] | 1 to 25
36 | Cc1c[nH]c(=O)nc1S[C@H](COCCOCCOCCN=[N+]=[N-])C(=O)NCc1ccc2c(c1)CC(=O)N2 [Compound I-407] | 1 to 25
37 | Cc1c[nH]c(=O)nc1S[C@@H](COCCOCCOCCN=[N+]=[N-])C(=O)NCc1ccc2c(c1)CC(=O)N2 [Compound I-408] | 1 to 25
38 | [N-]=[N+]=NCCOCCOCCOCC[C@@H](Sc1nc(=O)[nH]cc1Cl)C(=O)NCc1ccc2c(c1)CC(=O)N2 [Compound I-409] | > 25
39 | [N-]=[N+]=NCCOCCOCCOCC[C@H](Sc1nc(=O)[nH]cc1Cl)C(=O)NCc1ccc2c(c1)CC(=O)N2 [Compound I-410] | > 25
40 | COc1ccc2c(c1)C[C@@H](COCCOCCOCCOCCN=[N+]=[N-])N(C(=O)CSc1nc(=O)[nH]cc1Cl)C2 [Compound I-415] | > 25
41 | COc1ccc2c(c1)C[C@H](COCCOCCOCCOCCN=[N+]=[N-])N(C(=O)CSc1nc(=O)[nH]cc1Cl)C2 [Compound I-416] | 1 to 25
42 | COc1ccc2c(c1)CCN(C(=O)[C@@H](COCCOCCOCCN=[N+]=[N-])Sc1nc(=O)[nH]cc1C)[C@@H]2C [Compound I-421, 4-[(1R)-1-[2-[2-(2-azidoethoxy)ethoxy]ethoxymethyl]-2-[(1R)-6-methoxy-1-methyl-3,4-dihydro-1H-isoquinolin-2-yl]-2-oxo-ethyl]sulfanyl-5-methyl-1H-pyrimidin-2-one] | > 25
43 | COc1ccc2c(c1)[C@H](COCCOCCOCCOCCN=[N+]=[N-])CN(C(=O)CSc1nc(=O)[nH]cc1Cl)[C@@H]2C [Compound I-426] | 1 to 25
44 | COc1ccc2c(c1)C[C@H](COCCOCCOCCOCCN=[N+]=[N-])N(C(=O)CSc1nc(=O)[nH]cc1Cl)[C@@H]2C [Compound I-428] | 1 to 25
45 | COc1ccc2c(c1)CCN(C(=O)CSc1nc(=O)[nH]cc1Cl)C2 [Compound I-431] | 1 to 25
46 | C#CCOCCOCCOCCOC[C@@H]1Cc2cc(OC)ccc2[C@@H](C)N1C(=O)CSc1nc(=O)[nH]cc1Cl [Compound I-432] | 1 to 25
47 | C#CCOCCOCCOCCOC[C@H]1Cc2cc(OC)ccc2[C@@H](C)N1C(=O)CSc1nc(=O)[nH]cc1Cl [Compound I-433] | > 25
48 | COc1cc(F)c2c(c1)CCN(C(=O)CSc1nc(=O)[nH]cc1Cl)C2 [Compound I-440] | > 25
49 | C#CCOCCOCCOCCOC[C@@H]1Cc2cc(OC)ccc2[C@H](C)N1C(=O)CSc1nc(=O)[nH]cc1Cl [Compound I-482] | 1 to 25
50 | COc1ccc2c(c1)C[C@H](COCCOCCOCCOCCN=[N+]=[N-])N(C(=O)CSc1nc(=O)[nH]cc1C)C2 [Compound I-487] | > 25
51 | C#CCOCCOCCOCCOC[C@H]1CN(C(=O)CSc2nc(=O)[nH]cc2Cl)[C@@H](C)c2ccc(OC)cc21 [Compound I-493] | 1 to 25
